Measurements from patent US20070054887A1, “Methods for treating bladder dysfunction” (BioXell S.p.A, priority 2003, published 2007).
Like-named read-outs stand apart in the source and are kept apart here.

Columns and labels:
[1] = test system: human bladder cells; assay: inhibition of basal human bladder cell growth; assay type: cell-based; details: for IC50: Homo sapiens
[2] = maximum tolerated dose (MTD) in rats; assay type: in vivo
From the text: The maximum tolerated dose (MTD) in rats is also listed for each compound.

CC(=O)OC1C/C(=C/C=C2\CCC[C@@]3(C)C2CCC3C2(CC#CC(OC(C)=O)(C(F)(F)F)C(F)(F)F)CC2)C[C@@H](OC(C)=O)C1 (some centres unmarked) [1,3,25-Tri-O-acetyl-1,25-dihydroxy-20-cyclopropyl-23-yne-26,27-hexafluoro-19-nor-cholecalciferol]
IC50 [1]: 0.0398 µM | MTD ([2]; rat, in vivo, read-out: MTD): 10 µg/kg

CC(=O)OC1C/C(=C/C=C2\CCC[C@]3(C)C(C(C)CC#CC(C)(C)O)=CCC23)C[C@@H](OC(C)=O)C1 (some centres unmarked) [1,3-Di-O-Acetyl-1,25-dihydroxy-16-ene-23-yne-19-nor-cholecalciferol]
IC50 [1]: 186 µM | MTD ([2]; rat, in vivo, read-out: MTD): 30 µg/kg

C=C1/C(=C\C=C2/CCC[C@]3(C)C(C(C)C/C=C/C(C)(C)O)=CCC23)CC(OC(C)=O)C[C@@H]1OC(C)=O (some centres unmarked) [1,3-Di-O-acetyl-1,25-dihydroxy-16,23E-diene-cholecalciferol]
IC50 [1]: 4.17e-06 µM | MTD ([2]; rat, in vivo, read-out: MTD): 3 µg/kg

CC(=O)OC1C/C(=C/C=C2\CCC[C@]3(C)C(C(C)CCCC(C)(C)O)=CCC23)C[C@@H](OC(C)=O)C1 (some centres unmarked) [1,3-Di-O-acetyl-1,25-dihydroxy-16-ene-19-nor-cholecalciferol]
IC50 [1]: 0.000631 µM | MTD ([2]; rat, in vivo, read-out: MTD): 3 µg/kg

C=C1/C(=C\C=C2/CCC[C@]3(C)C(C(C)CC#CC(O)(C(F)(F)F)C(F)(F)F)=CCC23)CC(OC(C)=O)C[C@@H]1OC(C)=O (some centres unmarked) [1,3-Di-O-acetyl-1,25-dihydroxy-16-ene-23-yne-26,27-hexafluoro-cholecalciferol]
IC50 [1]: 0.002 µM | MTD ([2]; rat, in vivo, read-out: MTD): 10 µg/kg

C=C1/C(=C\C=C2/CCC[C@]3(C)C(C(C)CC#CC(C)(C)O)=CCC23)CC(OC(C)=O)C[C@@H]1OC(C)=O (some centres unmarked) [1,3-Di-O-acetyl-1,25-dihydroxy-16-ene-23-yne-cholecalciferol]
IC50 [1]: 5.01e-05 µM | MTD ([2]; rat, in vivo, read-out: MTD): 10 µg/kg

C=C1/C(=C\C=C2/CCC[C@]3(C)C(C(C)CCCC(C)(C)O)=CCC23)CC(OC(C)=O)C[C@@H]1OC(C)=O (some centres unmarked) [1,3-Di-O-acetyl-1,25-dihydroxy-16-ene-cholecalciferol]
IC50 [1]: 0.000224 µM | MTD ([2]; rat, in vivo, read-out: MTD): 1 µg/kg

CC(=O)OC1C/C(=C/C=C2\CCC[C@@]3(C)C2CCC3C2(CC#CC(O)(C(F)(F)F)C(F)(F)F)CC2)C[C@@H](OC(C)=O)C1 (some centres unmarked) [1,3-Di-O-acetyl-1,25-dihydroxy-20-cyclopropyl-23-yne-26,27-hexafluoro-19-nor-cholecalciferol]
IC50 [1]: 0.0012 µM | MTD ([2]; rat, in vivo, read-out: MTD): 10 µg/kg

C=C1C(=CC=C2CCCC3(C)C2CCC3C2(CC#CC(C)(C)O)CC2)CC(OC(C)=O)CC1OC(C)=O (centres unmarked) [1,3-Di-O-acetyl-1,25-dihydroxy-20-cyclopropyl-23-yne-cholecalciferol]
−Log IC50 ([1]; basal human bladder cell growth, cells not stimulated with testosterone): >2 | MTD [2]: 30 µg/kg

CC(=O)OC1C/C(=C/C=C2\CCC[C@@]3(C)C2CCC3C2(C/C=C/C(O)(C(F)(F)F)C(F)(F)F)CC2)C[C@@H](OC(C)=O)C1 (some centres unmarked) [1,3-Di-O-acetyl-1,25-dihydroxy-20-cyclopropyl-23E-ene-26,27-hexafluoro-19-nor-cholecalciferol]
IC50 [1]: 0.00158 µM | MTD ([2]; rat, in vivo, read-out: MTD): 0.3 µg/kg

CC(=O)OC1C/C(=C/C=C2\CCC[C@@]3(C)C2CCC3C2(C/C=C\C(O)(C(F)(F)F)C(F)(F)F)CC2)C[C@@H](OC(C)=O)C1 (some centres unmarked) [1,3-Di-O-acetyl-1,25-dihydroxy-20-cyclopropyl-23Z-ene-26,27-hexafluoro-19-nor-cholecalciferol]
IC50 [1]: 0.2 µM | MTD ([2]; rat, in vivo, read-out: MTD): 10 µg/kg

C=C1/C(=C\C=C2/CCC[C@@]3(C)C2CCC3C2(CCCC(C)(C)O)CC2)CC(OC(C)=O)C[C@@H]1OC(C)=O (some centres unmarked) [1,3-Di-O-acetyl-1,25-dihydroxy-20-cyclopropyl-cholecalciferol]
IC50 [1]: 0.398 µM | MTD ([2]; rat, in vivo, read-out: MTD): 30 µg/kg

C=C1/C(=C\C=C2/CCC[C@@]3(C)C2CCC3C(C)CC#CC(C)(C)O)CC(OC(C)=O)C[C@@H]1OC(C)=O (some centres unmarked) [1,3-Di-O-acetyl-1,25-dihydroxy-23-yne-cholecalciferol]
IC50 [1]: < 10000 µM | MTD ([2]; rat, in vivo, read-out: MTD): 1 µg/kg

CC(=O)O[C@@H]1CC(=C/C=C2\CCC[C@]3(C)C([C@H](C)CCC(=O)C(C)(C)O)=CCC23)C[C@@H](OC(C)=O)C1 (some centres unmarked) [1,3-O-Diacetyl-1,25-Dihydroxy-16-ene-24-Keto-19-nor-Cholecalciferol]
IC50 [1]: 0.617 µM | MTD ([2]; rat, in vivo, read-out: MTD): 300 µg/kg

[2H]C([2H])([2H])C(O)(CCC[C@@H](CC#CC(O)(C(F)(F)F)C(F)(F)F)C1CCC2/C(=C/C=C3C[C@@H](O)C[C@H](O)C3)CCC[C@@]21C)C([2H])([2H])[2H] (stereo partly drawn) [1,25-Dihydroxy-21(3-hydroxy-3-trifluoromethyl-4-trifluoro-butynyl)-26,27-hexadeutero-19-nor-20S-cholecalciferol]
IC50 [1]: 31600 µM | MTD ([2]; rat, in vivo, read-out: MTD): 0.2 µg/kg

C=C1/C(=C\C=C2/CCC[C@@]3(C)C2CCC3C(CCCC(C)(C)O)CCC(O)C(C)(C)O)C[C@@H](O)C[C@@H]1O (stereo partly drawn) [1,25-Dihydroxy-21-(2R,3-dihydroxy-3-methyl-butyl)-20R-Cholecalciferol]
IC50 [1]: 24 µM | MTD ([2]; rat, in vivo, read-out: MTD): 30 µg/kg

CC(C)(O)CCCC(CCCC(C)(C)O)[C@H]1CC[C@H]2/C(=C/C=C3C[C@@H](O)C[C@H](O)C3)CCC[C@]12C [1,25-dihydroxy-21-(3-hydroxy-3-methylbutyl)-19-nor-cholecalciferol]
IC50 [1]: 9.77 µM

C=C1/C(=C\C=C2/CCC[C@]3(C)C(C4(C/C=C/C(O)(C(F)(F)F)C(F)(F)F)CC4)=CCC23)CC(O)C[C@@H]1O (stereo partly drawn) [1α,25-Dihydroxy-16-ene-20-cyclopropyl-23,24-E-ene-26,27-hexafluoro-cholecalciferol]
IC50 [1]: 1.58e-05 µM | MTD ([2]; rat, in vivo, read-out: MTD): 0.3 µg/kg

C=C1/C(=C\C=C2/CCC[C@]3(C)C(C4(C/C=C\C(O)(C(F)(F)F)C(F)(F)F)CC4)=CCC23)CC(O)C[C@@H]1O (stereo partly drawn) [1α,25-Dihydroxy-16-ene-20-cyclopropyl-23,24-Z-ene-26,27-hexafluoro-cholecalciferol]
IC50 [1]: 0.0794 µM | MTD ([2]; rat, in vivo, read-out: MTD): 1 µg/kg

C=C1/C(=C\C=C2/CCC[C@]3(C)C(C4(CC#CC(O)(C(F)(F)F)C(F)(F)F)CC4)=CCC23)CC(O)C[C@@H]1O (stereo partly drawn) [1α,25-Dihydroxy-16-ene-20-cyclopropyl-23,24-yne-26,27 hexafluoro cholecalciferol]
IC50 [1]: 3550 µM | MTD ([2]; rat, in vivo, read-out: MTD): 0.3 µg/kg

C=C1/C(=C\C=C2/CCC[C@]3(C)C(C4(CCCC(C)(C)O)CC4)=CCC23)CC(O)C[C@@H]1O (stereo partly drawn) [1α,25-Dihydroxy-16-ene-20-cyclopropyl-cholecalciferol]
IC50 [1]: 0.017 µM | MTD ([2]; rat, in vivo, read-out: MTD): 1 µg/kg
